Values of other authors as cited in patent US20110287109A1 (MAX INTERNATIONAL, LLC, priority 2010, published 2011).

Legend:
[1] = tested on: glutathione levels; details: mice, 8 mmol/kg i.p.
[2] = tested on: mice exposed to cyclophosphamide; details: 8 mmol/kg
[3] = tested on: acetaminophen hepatic and renal toxicity; details: mice, 2 g/kg
[4] = tested on: irradiation-induced bowel injury; details: mice, 1 g/kg
[5] = administered directly to humans
[6] = tested on: exercise capacity; details: healthy humans, orally, 8-10 g per day by an adult
[7] = tested on: ATP levels; details: dogs subjected to ischemia (heart attack model), about 3 g/day for at least 5 days

SMILES	increase of glutathione level in heart ([1]; heart)	increase of glutathione level in muscle tissue ([1]; muscle tissue)	delivery of protective amounts of cysteine [2]	protection against acetaminophen hepatic and renal toxicity [3]	protection against irradiation-induced bowel injury [4]	toxicity over wide dosage ranges [5]	exercise capacity [6]	ATP levels [7]
O=C(O)[C@@H]1CSC(C(O)C(O)C(O)CO)N1 (stereo partly drawn) [RibCys, 2(R,S)-D-ribo-(1′,2′,3′,4′-tetrahydroxybutyl)thiazolidine-4(R)-carboxylic acid]	1.5 ×	2.5 ×	deliver effective protective amounts of cysteine	protect mice against acetaminophen hepatic and renal toxicity	protect mice against irradiation-induced bowel injury	–	–	–
O=C[C@H](O)[C@H](O)[C@H](O)CO [ribose]	–	–	–	–	–	essentially non-toxic	increase exercise capacity	effectively restored and maintained ATP levels
